Assays:
Format in all cases: functional
[1] = tested on: Leishmania amazonensis; experiment: Antileishmanial activity against Leishmania amazonensis H142 Guianese amastigotes in BALB/c mouse macrophages assessed as inhibition of infection at 0.05 mg/ml relative to control
[2] = tested on: Leishmania amazonensis; experiment: Antileishmanial activity against Leishmania amazonensis H142 Guianese amastigotes in BALB/c mouse macrophages assessed as inhibition of infection at 0.04 mg/ml relative to control
[3] = tested on: Leishmania amazonensis; experiment: Antileishmanial activity against Leishmania amazonensis H142 Guianese amastigotes in BALB/c mouse macrophages assessed as survival of peritoneal macrophages at 0.25 mg/ml relative to control
[4] = tested on: Leishmania amazonensis; experiment: Antileishmanial activity against Leishmania amazonensis H142 Guianese amastigotes in BALB/c mouse macrophages assessed as inhibition of infection at 0.02 mg/ml relative to control

Structure (SMILES): Oc1ccc(C2CCc3c(O)cc(O)cc3O2)cc1 (centres undefined)
- inhibition at 50 µg/mL [1]: 57%
- inhibition at 40 µg/mL [2]: 100%
- survival at 250 µg/mL [3]: 0%
- inhibition at 20 µg/mL [4]: 100%

From ChEMBL document CHEMBL1149051, “Isolation of flavins from the Amazonian shrub Faramea guianesis” (1994)
